Test results reported in patent publication US11944665B2, “Methods and compositions for modulating lymphatic vessels in the central nervous system” (University of Virginia Patent Foundation, priority 2016, dated 2024).

Experiments:
[1] = tested on: meningeal lymphatic vessels; assay: Visudyne ablation then repeated Aβ42 injection into CSF, meningeal aggregates (Example 8); assay type: in vivo, C57BL/6 mice; conditions: Aβ42 2.5 μg every 24 h into CSF for 5 days, from 72 h after ablation, vs vehicle
Method: C57BL/6 adult mice were anesthetized and injected ICM with visudyne to induce meningeal lymphatic vessel ablation, or vehicle as a control. After the photoconversion step, mice were allowed to recover for 72 h. Then, catheters were implanted in the cisterna magna of all mice and 2.5 μg of Aβ42 were injected every 24 h into the CSF for a total of 5 days. […] Results are presented as mean±s.e.m.; n=5 per group; *P<0.05, **P<0.01, one-tailed Mann-Whitney test.

[2] = tested on: meningeal lymphatic vessels; assay: Visudyne ablation in old mice, OVA-A647 CSF tracer (Example 3); assay type: in vivo, C57BL/6 mice; conditions: old (20-24 months-old) mice, 7 days post ablation, vs old+vehicle
Method: Injections of visudyne or vehicle (ICM), followed by a photoconversion step, were performed in adult (3 months-old) or old (20-24 months-old) C57BL/6 mice. 7 days post ablation, OVA-A647 (2.5 μg) was injected into the CSF (ICM) and mice were transcardially perfused with saline 2 h after.

[3] = tested on: meningeal lymphatic vessels; assay: EAE (MOG35-55) after Visudyne meningeal lymphatic ablation; assay type: in vivo, C57b16 mice
Method: FIG. 22 is a graph showing ablation of the meningeal lymphatic decreases EAE score. Adult C57b16 mice were injected ICV (cisterna magna) or intranasally with Visudyne that was then photoconverted (Meningeal ablation) or not (Control). On the same day, EAE was induced by injected MOG 35-55 emulsion subcutaneously. At day 17 mice were scored prior to sacrifice (brain, meninges, and spinal cord were harvested for IHC to measure the amount of demyelination and the infiltrate).
EAE clinical symptom development in laser. Visudyne (i.n.)+laser and Visudyne (i.c.m.)+laser treated mice. (mean±s.e.m. n=12-41 mice/group pooled from 3 independent experiments, ****p<0.0001, repeated measures 2 way ANOVA with Tukey's multiple comparisons test) is shown in FIG. 51A. Incidence of EAE development (day mice reach a score of 1 or above) in laser, Visudyne (i.n.)+laser and Visudyne (i.c.m.)+laser treated mice. Representative dot plots of CD4 and CD8 T cells in the spinal cord of laser and Visudyne (i.c.m.)+laser mice during late onset EAE (D17) are shown in FIG. 51C. Quantification of the number of CD4 T cells in the spinal cord of laser and Visudyne (i.c.m.)+laser treated mice at D17 post immunization. (mean±s.e.m. n=4/5 mice per group, representative of 2 independent experiments, **p=0.005, unpaired t test) is shown in FIG. 51D. […] Accordingly, it is contemplated that ablation of lymphatic vessels in accordance with some embodiments herein can ameliorate symptoms and disease development of MS, for which EAE (MOG) is a model.

[4] = tested on: APPSwe transgenic mice; assay: Visudyne ablation in APPSwe mice, Morris water maze (Example 10); assay type: in vivo; conditions: APPSwe mice 6-7 months-old, ablation every 2 weeks for 1 month, vs vehicle
Text: Adult (6-7 months-old) APPSwe transgenic mice were anesthetized, injected with visudyne (ICM), or vehicle as a control, and submitted to a step of transcranial photoconversion, every 2 weeks for a total of 1 month. […] Results are presented as mean±s.e.m.; n=9 per group; *P<0.05, two-way ANOVA—Repeated Measures, with Bonferroni post hoc test.

[5] = tested on: meningeal lymphatic vessels; assay: Visudyne ablation, OVA-A647 CSF tracer drainage and brain influx (Example 2); assay type: in vivo, C57BL/6 mice; conditions: vs vehicle
Method: Adult C57BL/6 mice were injected with visudyne or vehicle (ICM) followed by a step of photoconversion. 7 days post ablation, 2.5 μg of ovalbumin-Alexa647 (OVA-A647) was injected into the CSF (ICM) and mice were transcardially perfused with saline 2 h after. j, Representative sections of dcLNs were stained with DAPI and LYVE-1, and levels of drained OVA-A647 were measured, and representative sections are shown for vehicle (FIG. 24A) and visudyne (FIG. 24B). OVA-A647 alone is shown in the inset in the upper right corner of each of FIGS. 24A and 24B, and LYVE-1 alone is shown in the inset in the lower right corner of each of FIGS. 24A and 24B.

[6] = tested on: meningeal lymphatic vessels; assay: Photoablation of meningeal lymphatic vessels, multiphoton 690 nm laser through thin skull (FIG. 18); assay type: in vivo, mice; conditions: 2 μl i.c.v., two hours after the ablation
Method: FIGS. 18A-D are a series of microscope images and graphs showing photoablation of meningeal lymphatic vessels. […] (cisterna magna) with 2 μl of Visudyne, which was activated using 690 nm laser of multiphoton microscope through thin skull. Two hours after the ablation, the meninges were collected and stained for lymphatic endothelial cell (Lyve-1) and blood vessels (laminin).

[7] = tested on: meningeal lymphatic vessels; assay: Visudyne meningeal lymphatic ablation, Aβ42 drainage and efflux (Example 1); assay type: in vivo, C57BL/6 mice; conditions: vs vehicle
Method: Visudyne (verteporfin) or vehicle (as control) were injected into the cisterna magna (intra-cisterna magna, ICM) of anesthetized adult C57BL/6 mice (3 months of age), followed by a photoconversion step that was achieved by shining a non-thermal red light (689 nm) in 5 points above the skull. 7 days after the initial procedure, Aβ42-HiLyte647 (1 μg) was stereotaxically injected (coordinates from bregma, AP=+1.5 mm, ML=−1.5 mm, DV=+2.5 mm) into the brain parenchyma. 1 h post injection, mice were transcardially perfused with saline and meninges, deep cervical lymph nodes (dcLNs) and brain were collected for analysis. Meningeal whole-mounts (scale bar, 1 mm) from vehicle (FIG. 23A) or visudyne (FIG. 23B) injected groups were stained for lymphatic vessel, endothelial hyaluronan receptor 1 (LYVE-1, green) and the blood vascular endothelial cell marker CD31 (red). Visudye alone is shown in the inset in the upper right corner of FIGS. 23A and 23B. […] Aβ42 alone is shown in the inset in the upper right corner of each of FIGS. 23E and 23F, and LYVE-1 alone is shown in the inset in the lower right corner of each of FIGS. 23E and 23F. Coronal brain sections (100 μm thick), both rostral and caudal to the injection site, were stained for glial fibrillary acidic protein (GFAP). […] Results are presented as mean±s.e.m. in FIGS. 23C, D, and G; n=6 in vehicle group and n=5 in visudyne group; *P<0.05. **P<0.01, one-tailed Mann-Whitney test; representative of 2 independent experiments).

With verteporfin [Visudyne] the “area occupied by Aβ aggregates in meningeal whole-mounts” value [1] was “significant increase in aggregates”, the “influx of a CSF tracer (OVA-A647) into the brain” value [2] was “does not further aggravate” and the EAE disease development ([3]; Visudyne (i.c.m.)+laser vs laser and Visudyne (i.n.)+laser) was “ameliorate disease development”. The “MOG-specific T cell activation in the deep cervical lymph nodes” value ([3]; Visudyne (i.c.m.)+laser vs laser, EAE) was “ameliorates MOG-specific T cell activation”, the “EAE score / disease severity” value ([3]; Visudyne ICV (cisterna magna) or intranasal, photoconverted vs not, scored day 17) was “decreases disease severity” and the “MWM probe and reversal” value [4] was “No differences”. For the same substance, the “latency to find the platform, 4th day of the acquisition phase of the MWM” value [4] was “Significant differences”, the “amount of OVA-A647 drained into the dcLNs” value ([5]; 2 h after OVA-A647 2.5 μg ICM, 7 days post ablation) was “significantly decreased” and the “OVA-A647 influx into the brain parenchyma” value ([5]; 2 h after OVA-A647 ICM, 7 days post ablation) was “significant decrease”. The “brain parenchyma coverage by aquaporin 4 (AQP4) expressing cells” value ([5]; adult mice, visudyne-induced ablation) was “no changes”, the “effect on the blood vessels (laminin)” value [6] was “No effect on the blood vessels was observed” and the “lymphatic vessels at the area of ablation (superior sagittal sinus)” value [6] was “Disruption of lymphatic vessels is evident”. The “lymphatic vessels in transverse sinuses” value [6] was “trend to disruption”, the “drainage of Aβ42 in dcLNs” value ([7]; 1 h after Aβ42-HiLyte647 (1 μg) injection into brain parenchyma, 7 days post ablation) was “significantly less drainage” and the “efflux of Aβ42 from the brain (area fraction occupied by the fluorescent peptide)” value ([7]; 1 h after Aβ42-HiLyte647 injection, 7 days post ablation) was “decreased efflux”. The “area of LYVE-1+ vessels (meningeal whole-mounts)” value ([7]; visudyne ICM + photoconversion 689 nm, adult mice, 7 days after) was “significant decrease” and the “coverage by CD31+ vessels (meningeal whole-mounts)” value ([7]; visudyne ICM + photoconversion, 7 days after) was “no changes”.
